Data: patent US20080009418A1, “Selective Inhibitors” (Alchemia LTD., priority 2004, published 2008)

Assays:
Human Melanocortin (MC4) = target: T1, Human Melanocortin (MC4) (Homo sapiens, UniProt P32245); assay: Radioligand binding, human melanocortin MC4 membranes, FlashPlate, [125I]-NDP-αMSH; details: compound at 10 μM; [125I]-NDP-αMSH, human MC4 membranes
T1 construct: purchased Perkin Elmer Biosignal
Procedure, shortened: (§1)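 Cloned human receptor membranes were coated onto FlashPlate wells and incubated with radioligand and compound (added from a 0.5 mM DMSO daughter plate) for 1 hour at room temperature in the dark. Scintillation counting gave percent inhibition, with DMSO defining total and reference ligand defining non-specific binding.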

Human opioid (ORL1) = target: T2, Human opioid (ORL1) (Homo sapiens, UniProt P41146); assay: Radioligand binding, human opioid ORL1 membranes, FlashPlate, [125I]-Nociceptin; details: compound at 10 μM; [125I]-Nociceptin, human ORL1 membranes
T2 construct: purchased Perkin Elmer Biosignal
T2 sequence (P41146 whole entry): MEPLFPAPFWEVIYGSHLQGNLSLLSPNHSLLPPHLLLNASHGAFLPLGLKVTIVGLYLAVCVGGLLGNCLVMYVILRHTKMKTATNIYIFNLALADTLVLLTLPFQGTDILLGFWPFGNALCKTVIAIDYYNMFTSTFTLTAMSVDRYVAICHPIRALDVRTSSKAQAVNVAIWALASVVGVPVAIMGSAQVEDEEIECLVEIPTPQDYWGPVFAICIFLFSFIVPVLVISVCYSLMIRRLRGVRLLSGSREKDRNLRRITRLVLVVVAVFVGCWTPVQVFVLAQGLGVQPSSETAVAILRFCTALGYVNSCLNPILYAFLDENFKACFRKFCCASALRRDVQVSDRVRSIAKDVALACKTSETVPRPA
Procedure, shortened: as §1

Human melanocortin (MC5) = target: T3, Human melanocortin (MC5) (Homo sapiens, UniProt P33032); assay: Radioligand binding, human melanocortin MC5 membranes, FlashPlate, [125I]-NDP-αMSH; details: compound at 10 μM; [125I]-NDP-αMSH, human MC5 membranes
T3 construct: purchased Perkin Elmer Biosignal
T3 sequence (P33032 whole entry): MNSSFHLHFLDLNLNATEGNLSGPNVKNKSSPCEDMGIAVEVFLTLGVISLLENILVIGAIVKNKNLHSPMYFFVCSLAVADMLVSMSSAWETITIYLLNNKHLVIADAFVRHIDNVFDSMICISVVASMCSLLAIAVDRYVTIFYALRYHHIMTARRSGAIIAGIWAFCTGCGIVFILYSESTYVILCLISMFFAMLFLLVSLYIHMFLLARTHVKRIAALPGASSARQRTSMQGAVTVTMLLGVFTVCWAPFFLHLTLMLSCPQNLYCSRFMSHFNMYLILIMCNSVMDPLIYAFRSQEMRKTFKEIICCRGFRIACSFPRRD
Procedure, shortened: as §1

[1] = target: T4, Human melanin-concentrating hormone (MCH1) (Homo sapiens, UniProt Q99705); assay: Radioligand binding, human melanin-concentrating hormone MCH1 membranes, FlashPlate, [125I]-S36057; details: compound at 10 μM; [125I]-S36057, human MCH1 membranes
T4 construct: purchased Perkin Elmer Biosignal
T4 sequence (Q99705 whole entry): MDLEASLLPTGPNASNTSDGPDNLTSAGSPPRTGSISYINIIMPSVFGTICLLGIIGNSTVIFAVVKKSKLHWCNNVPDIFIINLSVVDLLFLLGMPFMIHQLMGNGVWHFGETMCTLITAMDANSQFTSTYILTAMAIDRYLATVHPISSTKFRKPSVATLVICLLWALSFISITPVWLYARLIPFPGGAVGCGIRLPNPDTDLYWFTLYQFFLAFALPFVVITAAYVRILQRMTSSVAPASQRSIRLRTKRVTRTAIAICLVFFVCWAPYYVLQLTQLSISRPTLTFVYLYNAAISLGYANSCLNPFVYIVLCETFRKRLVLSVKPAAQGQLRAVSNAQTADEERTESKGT
Procedure, shortened: as §1

Human δ-opioid (DOP) = target: T5, Human δ-opioid (DOP) (Homo sapiens, UniProt P41143); assay: Radioligand binding, human δ-opioid (DOP) membranes, FlashPlate, [3H]-Bremazocine; details: compound at 10 μM; [3H]-Bremazocine, human DOP membranes
T5 construct: purchased Perkin Elmer Biosignal
T5 sequence (P41143 whole entry): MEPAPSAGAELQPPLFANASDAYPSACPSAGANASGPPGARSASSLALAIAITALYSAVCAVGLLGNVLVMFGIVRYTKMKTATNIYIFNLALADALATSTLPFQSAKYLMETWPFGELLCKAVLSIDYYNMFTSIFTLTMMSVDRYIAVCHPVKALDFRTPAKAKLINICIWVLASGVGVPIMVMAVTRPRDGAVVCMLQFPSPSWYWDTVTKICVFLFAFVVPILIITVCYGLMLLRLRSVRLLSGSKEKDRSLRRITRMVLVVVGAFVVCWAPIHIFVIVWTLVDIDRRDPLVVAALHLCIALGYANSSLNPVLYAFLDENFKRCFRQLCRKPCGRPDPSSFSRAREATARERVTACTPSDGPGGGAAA
Procedure, shortened: as §1

Human μ-opioid (MOP) = target: T6, Human μ-opioid (MOP) (Homo sapiens, UniProt P35372); assay: Radioligand binding, human μ-opioid (MOP) membranes, FlashPlate, [3H]-Naloxone; details: compound at 10 μM; [3H]-Naloxone, human MOP membranes
T6 construct: purchased Perkin Elmer Biosignal
T6 sequence (P35372 whole entry): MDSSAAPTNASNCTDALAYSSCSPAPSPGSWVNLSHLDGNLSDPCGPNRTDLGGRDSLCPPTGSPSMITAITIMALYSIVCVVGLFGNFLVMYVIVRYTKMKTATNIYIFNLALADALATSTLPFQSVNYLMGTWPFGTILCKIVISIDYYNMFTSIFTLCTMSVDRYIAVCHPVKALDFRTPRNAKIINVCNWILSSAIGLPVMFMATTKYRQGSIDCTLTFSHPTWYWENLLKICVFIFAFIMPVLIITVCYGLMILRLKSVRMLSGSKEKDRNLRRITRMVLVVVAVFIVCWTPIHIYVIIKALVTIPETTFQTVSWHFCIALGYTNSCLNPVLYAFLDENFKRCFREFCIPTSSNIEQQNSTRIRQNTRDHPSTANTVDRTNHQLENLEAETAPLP
Procedure, shortened: as §1

Human neurokinin (NK1) = target: T7, Human neurokinin (NK1) (Homo sapiens, UniProt P25103); assay: Radioligand binding, human neurokinin NK1 membranes, filtration, [125I]-Substance P; details: compound at 10 μM; [125I]-Substance P, human NK1 membranes
T7 construct: purchased Perkin Elmer Biosignal
T7 sequence (P25103 whole entry): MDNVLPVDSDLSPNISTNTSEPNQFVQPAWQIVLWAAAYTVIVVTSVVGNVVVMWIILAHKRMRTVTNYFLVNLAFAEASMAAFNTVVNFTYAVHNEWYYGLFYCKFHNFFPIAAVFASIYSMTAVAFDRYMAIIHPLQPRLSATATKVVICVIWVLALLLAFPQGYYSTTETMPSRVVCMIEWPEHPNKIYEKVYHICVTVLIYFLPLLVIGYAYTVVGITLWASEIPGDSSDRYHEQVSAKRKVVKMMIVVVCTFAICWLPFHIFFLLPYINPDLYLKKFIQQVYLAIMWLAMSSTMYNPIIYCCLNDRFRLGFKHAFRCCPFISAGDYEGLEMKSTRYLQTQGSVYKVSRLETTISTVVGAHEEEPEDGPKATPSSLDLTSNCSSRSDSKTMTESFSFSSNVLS
Procedure, shortened: (§2)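 Filtration binding on cloned human receptor membranes (1 Unit/well), [125I]-Substance P for NK1 and [3H]-Diprenorphine for KOP, 1 h at room temperature. Filters PEI-presoaked, washed with cold 50 mM Tris-HCl pH 7.4, counted by scintillation; percent inhibition calculated, reference ligand defining non-specific binding.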

Human Melanocortin (MC3) = target: T8, Human Melanocortin (MC3) (Homo sapiens, UniProt P41968); assay: Radioligand binding, human melanocortin MC3 membranes, FlashPlate, [125I]-NDP-αMSH; details: compound at 10 μM; [125I]-NDP-αMSH, human MC3 membranes
T8 construct: purchased Perkin Elmer Biosignal
T8 sequence (P41968 whole entry): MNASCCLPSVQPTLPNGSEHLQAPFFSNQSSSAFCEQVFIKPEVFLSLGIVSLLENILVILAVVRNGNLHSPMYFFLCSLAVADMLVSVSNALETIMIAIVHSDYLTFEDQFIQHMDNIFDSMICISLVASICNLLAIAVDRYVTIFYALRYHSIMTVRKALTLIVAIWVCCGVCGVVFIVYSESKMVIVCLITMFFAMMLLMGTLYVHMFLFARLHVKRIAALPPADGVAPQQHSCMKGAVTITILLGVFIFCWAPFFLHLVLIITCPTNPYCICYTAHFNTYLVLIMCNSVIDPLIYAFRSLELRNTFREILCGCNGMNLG
Procedure, shortened: as §1

Human κ-Opioid (KOP) = target: T9, Human κ-Opioid (KOP) (Homo sapiens, UniProt P41145); assay: Radioligand binding, human κ-opioid (KOP) membranes, filtration, [3H]-Diprenorphine; details: compound at 10 μM; [3H]-Diprenorphine, human KOP membranes
T9 construct: purchased Perkin Elmer Biosignal
T9 sequence (P41145 whole entry): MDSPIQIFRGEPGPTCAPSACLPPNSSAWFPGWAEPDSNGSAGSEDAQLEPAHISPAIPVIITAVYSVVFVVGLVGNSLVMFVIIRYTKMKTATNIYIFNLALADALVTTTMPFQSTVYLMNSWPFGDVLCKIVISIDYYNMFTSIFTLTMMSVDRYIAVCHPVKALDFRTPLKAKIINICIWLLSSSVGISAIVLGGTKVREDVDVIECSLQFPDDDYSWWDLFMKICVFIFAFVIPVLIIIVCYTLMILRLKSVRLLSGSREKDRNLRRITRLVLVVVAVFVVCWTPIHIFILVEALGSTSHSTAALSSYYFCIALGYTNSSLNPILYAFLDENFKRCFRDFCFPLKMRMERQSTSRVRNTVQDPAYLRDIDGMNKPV
Procedure, shortened: as §2

[2] = target: T10, Human neuropeptide Y (NPY-Y1) (Homo sapiens, UniProt P25929); assay: Radioligand binding, human neuropeptide Y NPY-Y1 membranes, FlashPlate, [125I]-PYY; details: compound at 10 μM; [125I]-PYY, human NPY-Y1 membranes
T10 construct: purchased Perkin Elmer Biosignal
T10 sequence (P25929 1-384): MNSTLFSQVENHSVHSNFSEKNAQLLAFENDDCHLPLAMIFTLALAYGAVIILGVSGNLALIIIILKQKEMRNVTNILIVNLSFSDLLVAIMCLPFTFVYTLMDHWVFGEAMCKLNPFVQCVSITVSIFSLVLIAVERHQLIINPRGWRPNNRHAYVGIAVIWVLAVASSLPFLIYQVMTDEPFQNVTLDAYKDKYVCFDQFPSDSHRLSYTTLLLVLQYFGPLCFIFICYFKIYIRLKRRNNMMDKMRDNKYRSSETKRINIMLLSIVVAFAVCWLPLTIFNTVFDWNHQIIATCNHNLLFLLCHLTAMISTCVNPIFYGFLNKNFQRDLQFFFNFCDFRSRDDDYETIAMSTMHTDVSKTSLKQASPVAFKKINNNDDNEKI
Procedure, shortened: as §1

Mouse urotensin (mUR2) = target: T11, Mouse urotensin (mUR2) (Mus musculus, UniProt Q8VIH9); assay: Radioligand binding, mouse urotensin mUR2 membranes, FlashPlate, [125I]-Urotensin II; details: compound at 10 μM; [125I]-Urotensin II, mouse mUR2 membranes
T11 construct: purchased Perkin Elmer Biosignal
T11 sequence (Q8VIH9 1-385): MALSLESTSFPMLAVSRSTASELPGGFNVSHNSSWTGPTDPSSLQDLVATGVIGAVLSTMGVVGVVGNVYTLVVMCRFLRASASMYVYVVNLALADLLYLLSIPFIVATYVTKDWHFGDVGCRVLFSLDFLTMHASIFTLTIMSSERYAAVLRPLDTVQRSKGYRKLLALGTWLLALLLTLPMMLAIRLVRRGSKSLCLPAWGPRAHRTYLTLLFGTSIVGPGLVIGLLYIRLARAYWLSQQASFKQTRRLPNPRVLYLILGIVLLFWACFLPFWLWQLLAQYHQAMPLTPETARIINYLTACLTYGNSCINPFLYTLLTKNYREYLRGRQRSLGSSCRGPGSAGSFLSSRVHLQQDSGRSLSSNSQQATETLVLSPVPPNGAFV
Procedure, shortened: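 Cloned mouse urotensin (mUR2) receptor membranes from Perkin Elmer Biosignal were immobilized in FlashPlate microplates using a proprietary coating. Each well got 19.5 μl buffer, then 0.5 μl of DMSO, reference ligand, or compound. Adding 5 μl of [125I]-Urotensin II, diluted to 5× final concentration in binding buffer, started binding. Plates were sealed with TopSeal-A and incubated 1 hour at room temperature in the dark. Wells were counted for 30 seconds each on a TopCount after a 60-second delay, and percentage inhibition was calculated.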

T1 sequence (P32245 whole entry): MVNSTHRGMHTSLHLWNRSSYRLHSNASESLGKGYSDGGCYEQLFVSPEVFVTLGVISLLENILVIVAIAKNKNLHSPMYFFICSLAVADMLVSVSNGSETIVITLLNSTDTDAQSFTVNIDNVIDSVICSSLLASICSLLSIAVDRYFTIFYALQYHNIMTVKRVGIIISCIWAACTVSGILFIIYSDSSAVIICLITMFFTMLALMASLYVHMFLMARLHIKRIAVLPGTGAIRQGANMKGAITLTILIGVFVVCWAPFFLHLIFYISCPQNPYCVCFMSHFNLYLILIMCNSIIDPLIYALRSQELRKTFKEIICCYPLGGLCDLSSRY

SMILES | A4: inhibition of radioligand binding (Human Melanocortin (MC4)) | A10: inhibition of radioligand binding (Human opioid (ORL1)) | A5: inhibition of radioligand binding (Human melanocortin (MC5)) | A6: inhibition of radioligand binding [1] | A1: inhibition of radioligand binding (Human δ-opioid (DOP)) | A7: inhibition of radioligand binding (Human μ-opioid (MOP)) | A8: inhibition of radioligand binding (Human neurokinin (NK1)) | A3: inhibition of radioligand binding (Human Melanocortin (MC3)) | A2: inhibition of radioligand binding (Human κ-Opioid (KOP)) | A9: inhibition of radioligand binding [2] | A11: inhibition of radioligand binding (Mouse urotensin (mUR2))
N=C(N)NCC(=O)NC1C(OCc2ccc(-c3ccccc3)cc2)OC(COCc2ccc(Cl)cc2)C(O)C1OCc1ccc(-c2ccccc2)cc1 (stereo not shown) [compound 407] | + (“+” indicates greater than 50% inhibition at 10 μM) | + (“+” indicates greater than 50% inhibition at 10 μM) | + (“+” indicates greater than 50% inhibition at 10 μM) | + (“+” indicates greater than 50% inhibition at 10 μM) | − (“−” indicates less than 50% inhibition at 10 μM) | − (“−” indicates less than 50% inhibition at 10 μM) | + (“+” indicates greater than 50% inhibition at 10 μM) | + (“+” indicates greater than 50% inhibition at 10 μM) | − (“−” indicates less than 50% inhibition at 10 μM) | − (“−” indicates less than 50% inhibition at 10 μM) | − (“−” indicates less than 50% inhibition at 10 μM)
N=C(N)NCCC(=O)NC1C(OCc2ccc(-c3ccccc3)cc2)OC(COCc2ccc3ccccc3c2)C(O)C1OCc1ccc(Cl)cc1 (stereo not shown) [compound 408] | + (“+” indicates greater than 50% inhibition at 10 μM) | + (“+” indicates greater than 50% inhibition at 10 μM) | + (“+” indicates greater than 50% inhibition at 10 μM) | + (“+” indicates greater than 50% inhibition at 10 μM) | − (“−” indicates less than 50% inhibition at 10 μM) | − (“−” indicates less than 50% inhibition at 10 μM) | + (“+” indicates greater than 50% inhibition at 10 μM) | + (“+” indicates greater than 50% inhibition at 10 μM) | − (“−” indicates less than 50% inhibition at 10 μM) | − (“−” indicates less than 50% inhibition at 10 μM) | − (“−” indicates less than 50% inhibition at 10 μM)
N=C(N)NCCC(=O)NC1C(OCc2ccc(-c3ccccc3)cc2)OC(COCc2ccccc2)C(O)C1OCc1ccc(Cl)cc1 (stereo not shown) [compound 409] | + (“+” indicates greater than 50% inhibition at 10 μM) | + (“+” indicates greater than 50% inhibition at 10 μM) | + (“+” indicates greater than 50% inhibition at 10 μM) | + (“+” indicates greater than 50% inhibition at 10 μM) | − (“−” indicates less than 50% inhibition at 10 μM) | − (“−” indicates less than 50% inhibition at 10 μM) | + (“+” indicates greater than 50% inhibition at 10 μM) | + (“+” indicates greater than 50% inhibition at 10 μM) | − (“−” indicates less than 50% inhibition at 10 μM) | − (“−” indicates less than 50% inhibition at 10 μM) | − (“−” indicates less than 50% inhibition at 10 μM)
N=C(N)NCCC(=O)NC1C(OCc2ccc(-c3ccccc3)cc2)OC(COCc2ccc(Cl)cc2)C(O)C1OCc1ccc(Cl)cc1 (stereo not shown) [compound 410] | + (“+” indicates greater than 50% inhibition at 10 μM) | + (“+” indicates greater than 50% inhibition at 10 μM) | + (“+” indicates greater than 50% inhibition at 10 μM) | + (“+” indicates greater than 50% inhibition at 10 μM) | − (“−” indicates less than 50% inhibition at 10 μM) | − (“−” indicates less than 50% inhibition at 10 μM) | + (“+” indicates greater than 50% inhibition at 10 μM) | + (“+” indicates greater than 50% inhibition at 10 μM) | − (“−” indicates less than 50% inhibition at 10 μM) | − (“−” indicates less than 50% inhibition at 10 μM) | − (“−” indicates less than 50% inhibition at 10 μM)
N=C(N)NCCC(=O)NC1C(OCc2ccc(-c3ccccc3)cc2)OC(COCc2ccc3ccccc3c2)C(O)C1OCc1ccc2ccccc2c1 (stereo not shown) [compound 411] | + (“+” indicates greater than 50% inhibition at 10 μM) | + (“+” indicates greater than 50% inhibition at 10 μM) | + (“+” indicates greater than 50% inhibition at 10 μM) | + (“+” indicates greater than 50% inhibition at 10 μM) | − (“−” indicates less than 50% inhibition at 10 μM) | − (“−” indicates less than 50% inhibition at 10 μM) | + (“+” indicates greater than 50% inhibition at 10 μM) | + (“+” indicates greater than 50% inhibition at 10 μM) | − (“−” indicates less than 50% inhibition at 10 μM) | − (“−” indicates less than 50% inhibition at 10 μM) | − (“−” indicates less than 50% inhibition at 10 μM)
